Reference: PubChem BioAssay (NCI)
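Step 1: Grow cells in 96-well plates. Step 2: Expose to compound for 48 hours at 5 concentrations. Step 3: Interpolate endpoints linearly; if unreached, use highest concentration. GI50 marks 50% less growth. TGI: total growth inhibition.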

What was measured:
Assay in all cases: inhibition of tumour cell growth, NCI panel, 48 h
MCF7 breast = system: MCF7 breast
SK-OV-3 ovarian = system: SK-OV-3 ovarian
SR leukemia = system: SR leukemia
OVCAR-8 ovarian = system: OVCAR-8 ovarian
PC-3 prostate = system: PC-3 prostate
A549 NSCLC = system: A549 NSCLC
K-562 leukemia = system: K-562 leukemia
EKVX NSCLC = system: EKVX NSCLC
MALME-3M melanoma = system: MALME-3M melanoma
HCT-116 colon = system: HCT-116 colon
OVCAR-4 ovarian = system: OVCAR-4 ovarian
DU-145 prostate = system: DU-145 prostate
NCI-H226 lung = system: NCI-H226 lung
MDA-MB-435 = system: MDA-MB-435
HOP-92 NSCLC = system: HOP-92 NSCLC
OVCAR-5 ovarian = system: OVCAR-5 ovarian
HT29 colon = system: HT29 colon
SF-539 CNS = system: SF-539 CNS
MDA-MB-231 breast = system: MDA-MB-231 breast
MOLT-4 leukemia = system: MOLT-4 leukemia
A498 renal = system: A498 renal
HCT-15 colon = system: HCT-15 colon
NCI/ADR-RES ovarian = system: NCI/ADR-RES ovarian
NCI-H460 lung = system: NCI-H460 lung
OVCAR-3 ovarian = system: OVCAR-3 ovarian
SF-268 CNS = system: SF-268 CNS
CAKI-1 renal = system: CAKI-1 renal
IGROV1 ovarian = system: IGROV1 ovarian
BT-549 breast = system: BT-549 breast
ACHN renal = system: ACHN renal
NCI-H23 lung = system: NCI-H23 lung
HCC-2998 colon = system: HCC-2998 colon
HS 578T breast = system: HS 578T breast
UACC-62 melanoma = system: UACC-62 melanoma
SN12C renal = system: SN12C renal
SNB-19 CNS = system: SNB-19 CNS
UACC-257 melanoma = system: UACC-257 melanoma
SK-MEL-2 melanoma = system: SK-MEL-2 melanoma
NCI-H522 lung = system: NCI-H522 lung
TK-10 renal = system: TK-10 renal
RPMI-8226 leukemia = system: RPMI-8226 leukemia
T-47D breast = system: T-47D breast
U251 CNS = system: U251 CNS
SK-MEL-28 melanoma = system: SK-MEL-28 melanoma
SK-MEL-5 melanoma = system: SK-MEL-5 melanoma
HL-60(TB) leukemia = system: HL-60(TB) leukemia
COLO 205 colon = system: COLO 205 colon
UO-31 renal = system: UO-31 renal
M14 melanoma = system: M14 melanoma
CCRF-CEM leukemia = system: CCRF-CEM leukemia
LOX IMVI melanoma = system: LOX IMVI melanoma
SNB-75 CNS = system: SNB-75 CNS
SW-620 colon = system: SW-620 colon
786-0 renal = system: 786-0 renal
HOP-62 NSCLC = system: HOP-62 NSCLC
KM12 colon = system: KM12 colon
SF-295 CNS = system: SF-295 CNS

Compound: O=C(CCCCCCNC(=O)C(O)(O)C(F)(F)F)Nc1nc2ccccc2s1
- GI50 (MCF7 breast): 6.59 µM
- TGI (MCF7 breast): > 29.8 µM
- GI50 (SK-OV-3 ovarian): 2.27 µM
- TGI (SK-OV-3 ovarian): 12.6 µM
- GI50 (SR leukemia): 1.23 µM
- TGI (SR leukemia): > 29.8 µM
- GI50 (OVCAR-8 ovarian): 2.86 µM
- TGI (OVCAR-8 ovarian): > 29.8 µM
- GI50 (PC-3 prostate): 5.01 µM
- TGI (PC-3 prostate): > 29.8 µM
- GI50 (A549 NSCLC): 7.99 µM
- TGI (A549 NSCLC): > 29.8 µM
- GI50 (K-562 leukemia): 1.7 µM
- TGI (K-562 leukemia): > 29.8 µM
- GI50 (EKVX NSCLC): 6.39 µM
- TGI (EKVX NSCLC): > 29.8 µM
- GI50 (MALME-3M melanoma): 1.49 µM
- TGI (MALME-3M melanoma): 13 µM
- GI50 (HCT-116 colon): 1.23 µM
- TGI (HCT-116 colon): > 29.8 µM
- GI50 (OVCAR-4 ovarian): 11 µM
- TGI (OVCAR-4 ovarian): > 29.8 µM
- GI50 (DU-145 prostate): 4.99 µM
- TGI (DU-145 prostate): > 29.8 µM
- GI50 (NCI-H226 lung): 9.61 µM
- TGI (NCI-H226 lung): > 29.8 µM
- GI50 (MDA-MB-435): 4.36 µM
- TGI (MDA-MB-435): 23.5 µM
- GI50 (HOP-92 NSCLC): 0.751 µM
- TGI (HOP-92 NSCLC): 8.28 µM
- GI50 (OVCAR-5 ovarian): 2.33 µM
- TGI (OVCAR-5 ovarian): 15 µM
- GI50 (HT29 colon): 3.75 µM
- TGI (HT29 colon): > 29.8 µM
- GI50 (SF-539 CNS): 6.56 µM
- TGI (SF-539 CNS): > 29.8 µM
- GI50 (MDA-MB-231 breast): 3.59 µM
- TGI (MDA-MB-231 breast): 22.1 µM
- GI50 (MOLT-4 leukemia): 1.21 µM
- TGI (MOLT-4 leukemia): > 29.8 µM
- GI50 (A498 renal): 1.51 µM
- TGI (A498 renal): 12.5 µM
- GI50 (HCT-15 colon): 5.8 µM
- TGI (HCT-15 colon): 19.1 µM
- GI50 (NCI/ADR-RES ovarian): 3.4 µM
- TGI (NCI/ADR-RES ovarian): 16.7 µM
- GI50 (NCI-H460 lung): 2.98 µM
- TGI (NCI-H460 lung): > 29.8 µM
- GI50 (OVCAR-3 ovarian): 3.17 µM
- TGI (OVCAR-3 ovarian): 8.39 µM
- GI50 (SF-268 CNS): 7.69 µM
- TGI (SF-268 CNS): > 29.8 µM
- GI50 (CAKI-1 renal): 6.99 µM
- TGI (CAKI-1 renal): > 29.8 µM
- GI50 (IGROV1 ovarian): 4.87 µM
- TGI (IGROV1 ovarian): 16.4 µM
- GI50 (BT-549 breast): 7.06 µM
- TGI (BT-549 breast): > 29.8 µM
- GI50 (ACHN renal): 3.59 µM
- TGI (ACHN renal): 17.3 µM
- GI50 (NCI-H23 lung): 4.94 µM
- TGI (NCI-H23 lung): 25.9 µM
- GI50 (HCC-2998 colon): 5.75 µM
- TGI (HCC-2998 colon): 16.8 µM
- GI50 (HS 578T breast): 3.57 µM
- TGI (HS 578T breast): > 29.8 µM
- GI50 (UACC-62 melanoma): 1.61 µM
- TGI (UACC-62 melanoma): 6.76 µM
- GI50 (SN12C renal): 6.39 µM
- TGI (SN12C renal): > 29.8 µM
- GI50 (SNB-19 CNS): 6.49 µM
- TGI (SNB-19 CNS): > 29.8 µM
- GI50 (UACC-257 melanoma): 6.56 µM
- TGI (UACC-257 melanoma): > 29.8 µM
- GI50 (SK-MEL-2 melanoma): 4.43 µM
- TGI (SK-MEL-2 melanoma): 21 µM
- GI50 (NCI-H522 lung): 2.76 µM
- TGI (NCI-H522 lung): 14.7 µM
- GI50 (TK-10 renal): 1.17 µM
- TGI (TK-10 renal): > 29.8 µM
- GI50 (RPMI-8226 leukemia): 2.73 µM
- TGI (RPMI-8226 leukemia): > 29.8 µM
- GI50 (T-47D breast): 2.24 µM
- TGI (T-47D breast): 22.8 µM
- GI50 (U251 CNS): 4.32 µM
- TGI (U251 CNS): 25.5 µM
- GI50 (SK-MEL-28 melanoma): 3.76 µM
- TGI (SK-MEL-28 melanoma): > 29.8 µM
- GI50 (SK-MEL-5 melanoma): 4.08 µM
- TGI (SK-MEL-5 melanoma): 8.13 µM
- GI50 (HL-60(TB) leukemia): 1.85 µM
- TGI (HL-60(TB) leukemia): > 29.8 µM
- GI50 (COLO 205 colon): 3.17 µM
- TGI (COLO 205 colon): 9.45 µM
- GI50 (UO-31 renal): 2.01 µM
- TGI (UO-31 renal): 15.9 µM
- GI50 (M14 melanoma): 6.4 µM
- TGI (M14 melanoma): > 29.8 µM
- GI50 (CCRF-CEM leukemia): 2.01 µM
- TGI (CCRF-CEM leukemia): > 29.8 µM
- GI50 (LOX IMVI melanoma): 3.41 µM
- TGI (LOX IMVI melanoma): 7.75 µM
- GI50 (SNB-75 CNS): 1.67 µM
- TGI (SNB-75 CNS): > 29.8 µM
- GI50 (SW-620 colon): 2.08 µM
- TGI (SW-620 colon): 11 µM
- GI50 (786-0 renal): 6.4 µM
- TGI (786-0 renal): > 29.8 µM
- GI50 (HOP-62 NSCLC): 4.29 µM
- TGI (HOP-62 NSCLC): > 29.8 µM
- GI50 (KM12 colon): 5.84 µM
- TGI (KM12 colon): > 29.8 µM
- GI50 (SF-295 CNS): 3.43 µM
- TGI (SF-295 CNS): 8.88 µM
